Activity calls are given as the source filed them. No cut-off for these calls is given here.

Among the data in ChEMBL document CHEMBL3232949, “Rapid identification of Keap1-Nrf2 small-molecule inhibitors through structure-based virtual screening and hit-based substructure search” (J Med Chem, 2014) are Activity, Kd and ΔTm values, retold here.

Kelch-like ECH-associated protein 1 (Homo sapiens), sequence (Q14145 whole entry): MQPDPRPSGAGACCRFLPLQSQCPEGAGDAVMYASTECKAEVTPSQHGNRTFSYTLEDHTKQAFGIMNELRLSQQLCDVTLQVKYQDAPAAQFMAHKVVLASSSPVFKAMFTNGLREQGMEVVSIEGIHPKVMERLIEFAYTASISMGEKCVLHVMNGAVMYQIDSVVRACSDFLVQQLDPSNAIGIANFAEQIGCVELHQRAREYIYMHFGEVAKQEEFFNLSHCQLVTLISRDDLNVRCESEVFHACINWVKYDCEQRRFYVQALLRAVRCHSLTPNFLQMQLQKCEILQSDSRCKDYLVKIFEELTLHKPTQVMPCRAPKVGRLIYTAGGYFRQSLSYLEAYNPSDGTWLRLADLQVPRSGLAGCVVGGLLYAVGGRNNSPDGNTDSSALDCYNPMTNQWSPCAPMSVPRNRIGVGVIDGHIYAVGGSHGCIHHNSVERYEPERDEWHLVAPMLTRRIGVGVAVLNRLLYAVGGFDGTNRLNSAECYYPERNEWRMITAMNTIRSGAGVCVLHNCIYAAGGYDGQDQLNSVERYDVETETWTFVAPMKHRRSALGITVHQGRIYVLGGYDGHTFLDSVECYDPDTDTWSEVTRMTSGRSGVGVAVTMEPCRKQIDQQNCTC

For one assay, the target named is T1, Nuclear factor erythroid 2-related factor 2 (Rattus norvegicus) (UniProt O54968).
T1 sequence (whole entry): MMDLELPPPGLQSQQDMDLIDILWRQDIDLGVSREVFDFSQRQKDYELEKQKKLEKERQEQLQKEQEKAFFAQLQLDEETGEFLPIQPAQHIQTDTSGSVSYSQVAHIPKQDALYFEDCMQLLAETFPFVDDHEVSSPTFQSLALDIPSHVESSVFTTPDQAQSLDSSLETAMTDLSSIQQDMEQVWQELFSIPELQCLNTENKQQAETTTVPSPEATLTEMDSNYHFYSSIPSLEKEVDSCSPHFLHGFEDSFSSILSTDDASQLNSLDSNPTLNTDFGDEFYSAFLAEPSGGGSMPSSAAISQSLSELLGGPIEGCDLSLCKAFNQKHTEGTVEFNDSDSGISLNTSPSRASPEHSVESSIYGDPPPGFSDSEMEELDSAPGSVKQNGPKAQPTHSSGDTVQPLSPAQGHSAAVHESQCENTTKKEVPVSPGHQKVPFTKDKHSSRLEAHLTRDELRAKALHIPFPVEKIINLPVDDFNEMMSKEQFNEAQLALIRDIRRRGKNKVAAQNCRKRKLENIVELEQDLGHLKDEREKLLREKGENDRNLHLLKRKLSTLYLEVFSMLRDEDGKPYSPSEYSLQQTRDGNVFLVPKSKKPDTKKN
Kind of assay: Induction of nuclear translocation of Nrf2 in rat PC12 cells at 4 uM after 4.5 hrs by Western blot analysis. The format is cell-based. Particulars: PC-12.
Turning to `CC(C)c1ccc(S(=O)(=O)Nc2cc(Sc3nc[nH]n3)c(O)c3ccccc23)cc1`, the result was inactive.

A further assay addresses T1, Nuclear factor erythroid 2-related factor 2 (Rattus norvegicus). The assay is described as follows: Activation of Nrf2 in rat PC12 cells assessed as increase of HO-1 mRNA level at 1 to 4 uM after 4.5 to 9 hrs by qRT-PCR analysis. The format is cell-based. The settings on record: PC-12.
Turning to `COc1ccc(S(=O)(=O)Nc2ccc(NS(=O)(=O)c3ccc(OC)cc3)c3ccccc23)cc1`, the result was inactive.

A further assay shares this target. Kind of assay: Activation of Nrf2 in rat PC12 cells assessed as increase of HO-1 mRNA level after 4.5 to 9 hrs by qRT-PCR analysis. The format is cell-based. The settings on record: PC-12. (In general: In qPCR the cycle at which signal appears reflects the starting amount.)
Turning to `CC(C)c1ccc(S(=O)(=O)Nc2cc(Sc3nc[nH]n3)c(O)c3ccccc23)cc1`, the Activity result is “Dose-dependent effect”.

In another assay the target is Keap1/Nrf2 (Homo sapiens, UniProt Q14145). Kind of assay: Inhibition of Keap1-Nrf2 (unknown origin) interaction assessed as compound's equilibrium dissociation constant after 60 mins by fluorescence anisotropy assay. The class given is protein assay.
Keap1/Nrf2, sequence (Q16236 whole entry): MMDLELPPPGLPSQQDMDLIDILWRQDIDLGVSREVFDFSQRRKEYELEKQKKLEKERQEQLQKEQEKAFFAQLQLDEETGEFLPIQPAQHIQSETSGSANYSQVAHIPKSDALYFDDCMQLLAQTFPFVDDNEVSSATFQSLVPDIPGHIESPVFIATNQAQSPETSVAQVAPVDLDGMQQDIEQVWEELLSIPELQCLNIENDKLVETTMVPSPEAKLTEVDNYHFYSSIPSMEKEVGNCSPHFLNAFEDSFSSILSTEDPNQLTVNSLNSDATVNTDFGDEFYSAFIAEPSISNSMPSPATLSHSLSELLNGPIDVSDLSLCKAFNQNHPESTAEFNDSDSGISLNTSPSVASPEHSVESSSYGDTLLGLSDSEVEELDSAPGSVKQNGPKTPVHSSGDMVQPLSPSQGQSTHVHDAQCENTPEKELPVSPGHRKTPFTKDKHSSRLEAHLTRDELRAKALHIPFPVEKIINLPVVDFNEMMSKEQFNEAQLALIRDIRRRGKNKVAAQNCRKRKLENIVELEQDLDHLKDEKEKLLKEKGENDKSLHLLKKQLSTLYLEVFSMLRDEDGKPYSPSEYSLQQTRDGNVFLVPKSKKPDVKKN
Keap1/Nrf2, sequence (Q14145 whole entry): as the sequence (Q14145 whole entry) above
Conditions: not given
(In general: In fluorescence polarisation assays a small probe gives low polarisation when free and higher when bound to something large.)
In general, Kd refers to the free concentration of one partner at which half of the binding sites on the other are occupied at equilibrium, for simple one-to-one binding. Take `Cc1ccc(NC(=O)CN2C(=O)S/C(=C\c3cccn3-c3cccc(C(=O)O)c3)C2=O)cc1C`: the Kd came to 28.9 µM.
In the case of `O=C1NN(c2ccc(Br)cc2)C(=O)/C1=C\c1ccc(-c2ccccc2)o1`, the Kd is above 100 µM.
On the same count and under the same terms, the same measure for `O=C(O)CSc1cc(NS(=O)(=O)c2ccc3ccccc3c2)c2ccccc2c1O`: 7.8 µM; for `O=C1NN(c2cccc(Cl)c2)C(=O)/C1=C\c1ccc(-c2cccc(C(=O)O)c2)o1`: 49.2 µM.
`Cc1cccc(NC(=O)CN2C(=O)S/C(=C\c3cccn3-c3cccc(C(=O)O)c3)C2=O)c1`: the Kd was 68.2 µM.
Regarding `O=C(O)CSc1cc(NS(=O)(=O)c2ccc(Cl)cc2)c2ccccc2c1O`, the dissociation constant Kd amounted to 15.3 µM.
Turning to `Cc1cc(C)c(S(=O)(=O)Nc2cc(Sc3nc[nH]n3)c(O)c3ccccc23)cc1C`, the Kd amounted to 3.6 µM.
Consider `O=C(O)CSc1cc(NS(=O)(=O)c2cccs2)c2ccccc2c1O`, for which the Kd came to 36.6 µM.
`O=C(CN1C(=O)S/C(=C\c2cccn2-c2cccc(C(=O)O)c2)C1=O)Nc1ccc(F)cc1`: the Kd was above 100 µM.
Take `O=C1NN(c2cccc(F)c2)C(=O)/C1=C\c1ccc(-c2ccc(C(=O)O)cc2)o1`: the Kd amounted to 77.8 µM.
`Cc1ccc(S(=O)(=O)Nc2cc(Sc3nc(C)cc(C)n3)c(O)c3ccccc23)cc1`: the dissociation constant (Kd) was above 100 µM.
In the case of `Cc1cc(C)c(S(=O)(=O)Nc2cc(SCC(=O)O)c(O)c3ccccc23)c(C)c1`, the equilibrium dissociation constant (Kd) is 4.2 µM.
`COC(=O)c1ccc(N2NC(=O)/C(=C/c3ccc(-c4ccc(S(N)(=O)=O)cc4)o3)C2=O)cc1`: the dissociation constant (Kd) was above 100 µM.
With `CC(=O)Oc1c(SCC(=O)O)cc(NS(=O)(=O)c2ccc(F)cc2)c2ccccc12`, the Kd was above 100 µM.
The same measure, in the same setting: under `O=C(O)CSc1cc(NS(=O)(=O)c2cccc3cccnc23)c2ccccc2c1O` stands 18.9 µM.
Consider `Cc1ccc(/N=C2/S/C(=C\c3c(C)n(CC(=O)O)c4ccccc34)C(=O)N2C)cc1`, for which the Kd stood at 35.4 µM.
With `COc1ccc(S(=O)(=O)Nc2cc(Sc3nc[nH]n3)c(O)c3ccccc23)cc1`, the Kd is 6.8 µM.
As to `O=C1NN(c2cccc(Cl)c2)C(=O)/C1=C\c1ccc(-c2ccc(C(=O)O)c(Cl)c2)o1`, the Kd was 15.2 µM.
On to `CC(C)(C)c1ccc(S(=O)(=O)Nc2cc(SCc3ccco3)c(O)c3ccccc23)cc1`, for which the dissociation constant (Kd) is above 100 µM.
On the same count and under the same terms, the same measure for `CC(C)c1ccc(S(=O)(=O)Nc2cc(SCC(=O)O)c(O)c3ccccc23)cc1`: 6.4 µM; for `O=C1NN(c2ccccc2)C(=O)/C1=C\c1ccc(-c2ccc(C(=O)O)c(Cl)c2)o1`: 42.9 µM.
The same measure, in the same setting: the same measure for `O=C1NN(c2cccc(Cl)c2)C(=O)/C1=C\c1ccc(-c2ccc(Br)cc2C(=O)O)o1`: 39.5 µM; for `Cc1ccc(NC(=O)CN2C(=O)S/C(=C\c3cccn3C)C2=O)c(C)c1`: above 100 µM.
As to `Cc1ccc(S(=O)(=O)Nc2cc(SCc3ccccc3)c(O)c3ccccc23)cc1`, the Kd is above 100 µM.
As for `O=C(CN1C(=O)S/C(=C\c2cccn2-c2ccc(O)cc2)C1=O)Nc1ccccc1F`, the Kd is above 100 µM.
`CN1C(=O)S/C(=C\c2cccn2-c2cccc(C(=O)O)c2)C1=O`: the Kd was above 100 µM.
The same measure, in the same setting: under `O=C(O)CSc1cc(NS(=O)(=O)c2ccc(Br)cc2)c2ccccc2c1O` stands 14.7 µM; under `Cc1ccc(S(=O)(=O)Nc2ccc(O)c(Sc3nc[nH]n3)c2)cc1`, above 100 µM.
In the case of `Cc1ccc(S(=O)(=O)Nc2cc(Sc3cccc4cccnc34)c(O)c3ccccc23)cc1`, the Kd was above 100 µM.
In the case of `O=S(=O)(Nc1cc(Sc2nnnn2-c2ccccc2)c(O)c2ccccc12)c1ccccc1`, the Kd turned out to be 55.5 µM.
As for `Cc1ccc(N2NC(=O)/C(=C/c3ccc(-c4ccc(S(=O)(=O)Nc5nccs5)cc4)o3)C2=O)cc1`, the equilibrium dissociation constant (Kd) was above 100 µM.
With `CCOc1cc(/C=C2\N=C(c3ccccc3)OC2=O)cc(Br)c1OCC(=O)O`, the Kd was determined as 29.5 µM.
The same measure, in the same setting: the same measure for `COc1ccc(-n2cccc2/C=C2\SC(=O)N(CC(=O)Nc3cccc(C)c3)C2=O)cc1`: above 100 µM.
As to `COc1ccc(NC(=O)CN2C(=O)S/C(=C\c3cccn3-c3ccc(C(=O)O)cc3)C2=O)cc1`, the Kd turned out to be 23.8 µM.
In the case of `O=S(=O)(Nc1cc(Sc2nc[nH]n2)c(O)c2ccccc12)c1ccc(Br)cc1`, the Kd turned out to be 13.1 µM.
With `NC(=O)c1ccc(-c2ccc(/C=C3/C(=O)NN(c4ccc(F)cc4)C3=O)o2)cc1`, the Kd was above 100 µM.
Regarding `Cc1ccc(S(=O)(=O)Nc2cc(Sc3nc4ccccc4s3)c(O)c3ccccc23)cc1`, the Kd is above 100 µM.
On to `O=S(=O)(Nc1cc(Sc2nc[nH]n2)c(O)c2ccccc12)c1ccc2ccccc2c1`, for which the Kd was determined as 3.6 µM.
`O=C(O)CSc1cc(NS(=O)(=O)c2ccc(F)cc2)c2ccccc2c1O`: the dissociation constant (Kd) amounted to 30.2 µM.
`O=S(=O)(Nc1cc(Sc2nc[nH]n2)c(O)c2ccccc12)c1ccccc1`: the Kd was found to be 61.2 µM.
In the case of `Cc1ccc(NC(=O)CN2C(=O)S/C(=C\c3cccn3-c3cccc(C(=O)O)c3)C2=O)c(C)c1`, the Kd is 47.6 µM.
Regarding `COc1ccc(-n2cccc2/C=C2\SC(=O)N(CC(=O)Nc3ccc(C)cc3)C2=O)cc1`, the Kd is above 100 µM.
Same read-out and setting: under `Cc1oc2c(cc(NS(=O)(=O)c3ccc(Cl)cc3)c3ccccc32)c1C(=O)O` stands 75.2 µM; under `Cc1cc(C)c(S(=O)(=O)Nc2cc(Cl)c(O)c(Sc3nc[nH]n3)c2)cc1C`, 20.9 µM; under `Cc1cccc(N2NC(=O)/C(=C/c3ccc(-c4ccc(S(N)(=O)=O)cc4)o3)C2=O)c1`, above 100 µM.
For `Cc1ccc(S(=O)(=O)Nc2cc(SCC(=O)O)c(O)c3ccccc23)cc1`, the Kd was 15.4 µM.
For the compound `COc1ccc(S(=O)(=O)Nc2cc(Sc3ccccc3)c(O)c3ccccc23)cc1`, the Kd was above 100 µM.
`Cc1cc(C)c(S(=O)(=O)Nc2cc3sc(=O)oc3c3ccccc23)cc1C`: the Kd is above 100 µM.
On the same count and under the same terms, under `Cc1ccccc1NC(=O)CN1C(=O)S/C(=C\c2cccn2-c2cccc(C(=O)O)c2)C1=O` stands 10.4 µM.
Consider `Cc1cccc(C)c1NC(=O)CN1C(=O)S/C(=C\c2cccn2-c2cccc(C(=O)O)c2)C1=O`, for which the Kd was above 100 µM.
In the case of `O=C(CN1C(=O)S/C(=C\c2cccn2-c2cccc(C(=O)O)c2)C1=O)Nc1ccc(Cl)cc1`, the Kd was above 100 µM.
Consider `CCOc1ccc(S(=O)(=O)Nc2cc(Sc3nc[nH]n3)c(O)c3ccccc23)cc1`, for which the Kd came to 3.1 µM.
For the compound `Cc1cc(F)ccc1S(=O)(=O)Nc1cc(SCC(=O)O)c(O)c2ccccc12`, the Kd stood at 12.2 µM.

For another assay, the target named is T1, Nuclear factor erythroid 2-related factor 2 (Rattus norvegicus). The assay is described as follows: Activation of Nrf2 in rat PC12 cells assessed as increase of HO-1 mRNA level at 1 to 4 uM by qRT-PCR analysis. The format is cell-based. Particulars: PC-12, TDE = time-dependent effect.
`CC(C)c1ccc(S(=O)(=O)Nc2cc(Sc3nc[nH]n3)c(O)c3ccccc23)cc1`: the Activity result was “tde”.

The next assay concerns the target Kelch-like ECH-associated protein 1 (Homo sapiens) (UniProt Q14145).
Conditions: not given
The ΔTm is the shift of the melting midpoint relative to a reference. Turning to `COc1ccc(S(=O)(=O)Nc2ccc(NS(=O)(=O)c3ccc(OC)cc3)c3ccccc23)cc1`, the thermal shift (ΔTm) was determined as 1 °C.
Regarding `O=C1NN(c2cccc(Cl)c2)C(=O)/C1=C\c1ccc(-c2ccc(C(=O)O)c(Cl)c2)o1`, the ΔTm was 2 °C.
For `Cc1ccc(S(=O)(=O)Nc2cc(Sc3nc4ccccc4s3)c(O)c3ccccc23)cc1`, the ΔTm was 1 °C.
In the case of `Cc1cc(C)c(S(=O)(=O)Nc2cc3sc(=O)oc3c3ccccc23)cc1C`, the ΔTm is 1 °C.
For the compound `Cc1ccccc1NC(=O)CN1C(=O)S/C(=C\c2cccn2-c2cccc(C(=O)O)c2)C1=O`, the ΔTm amounted to 1 °C.
For the compound `CCOc1ccc(S(=O)(=O)Nc2cc(Sc3nc[nH]n3)c(O)c3ccccc23)cc1`, the ΔTm amounted to 4 °C.

The target in the next assay is T1, Nuclear factor erythroid 2-related factor 2 (Rattus norvegicus). Kind of assay: Induction of nuclear translocation of Nrf2 in rat PC12 cells at 4 uM after 1.5 hrs by Western blot analysis. The class given is cell-based. Particulars: PC-12. (In western blotting, separated proteins are transferred to a membrane and probed.)
Turning to `CC(C)c1ccc(S(=O)(=O)Nc2cc(Sc3nc[nH]n3)c(O)c3ccccc23)cc1`, the result was Active.

The target is the same in the next assay. The assay is described as follows: Activation of Nrf2 in rat PC12 cells assessed as increase of NQO-1 mRNA level at 1 to 4 uM after 4.5 to 9 hrs by qRT-PCR analysis. The format is cell-based. The settings on record: PC-12.
Take `COc1ccc(S(=O)(=O)Nc2ccc(NS(=O)(=O)c3ccc(OC)cc3)c3ccccc23)cc1`: the result was inactive.
